ChEMBL document CHEMBL2074504, “Inhibition of P-glycoprotein-mediated drug transport: A unifying mechanism to explain the interaction between digoxin and quinidine [seecomments]” (Circulation, 1999)

Experiments:
[1] = target: ATP-dependent translocase ABCB1 (Homo sapiens, UniProt P08183); assay: TP_TRANSPORTER: transepithelial transport (basal to apical) in Caco-2 cells; type: functional, cell-based
[2] = target: T1, ATP-dependent translocase ABCB1 (Mus musculus, UniProt P21447); assay: TP_TRANSPORTER: increase in spleen concentration in mdr1a(-/-) mouse; type: functional, organism-based; settings: in vivo
T1 sequence (P21447 whole entry): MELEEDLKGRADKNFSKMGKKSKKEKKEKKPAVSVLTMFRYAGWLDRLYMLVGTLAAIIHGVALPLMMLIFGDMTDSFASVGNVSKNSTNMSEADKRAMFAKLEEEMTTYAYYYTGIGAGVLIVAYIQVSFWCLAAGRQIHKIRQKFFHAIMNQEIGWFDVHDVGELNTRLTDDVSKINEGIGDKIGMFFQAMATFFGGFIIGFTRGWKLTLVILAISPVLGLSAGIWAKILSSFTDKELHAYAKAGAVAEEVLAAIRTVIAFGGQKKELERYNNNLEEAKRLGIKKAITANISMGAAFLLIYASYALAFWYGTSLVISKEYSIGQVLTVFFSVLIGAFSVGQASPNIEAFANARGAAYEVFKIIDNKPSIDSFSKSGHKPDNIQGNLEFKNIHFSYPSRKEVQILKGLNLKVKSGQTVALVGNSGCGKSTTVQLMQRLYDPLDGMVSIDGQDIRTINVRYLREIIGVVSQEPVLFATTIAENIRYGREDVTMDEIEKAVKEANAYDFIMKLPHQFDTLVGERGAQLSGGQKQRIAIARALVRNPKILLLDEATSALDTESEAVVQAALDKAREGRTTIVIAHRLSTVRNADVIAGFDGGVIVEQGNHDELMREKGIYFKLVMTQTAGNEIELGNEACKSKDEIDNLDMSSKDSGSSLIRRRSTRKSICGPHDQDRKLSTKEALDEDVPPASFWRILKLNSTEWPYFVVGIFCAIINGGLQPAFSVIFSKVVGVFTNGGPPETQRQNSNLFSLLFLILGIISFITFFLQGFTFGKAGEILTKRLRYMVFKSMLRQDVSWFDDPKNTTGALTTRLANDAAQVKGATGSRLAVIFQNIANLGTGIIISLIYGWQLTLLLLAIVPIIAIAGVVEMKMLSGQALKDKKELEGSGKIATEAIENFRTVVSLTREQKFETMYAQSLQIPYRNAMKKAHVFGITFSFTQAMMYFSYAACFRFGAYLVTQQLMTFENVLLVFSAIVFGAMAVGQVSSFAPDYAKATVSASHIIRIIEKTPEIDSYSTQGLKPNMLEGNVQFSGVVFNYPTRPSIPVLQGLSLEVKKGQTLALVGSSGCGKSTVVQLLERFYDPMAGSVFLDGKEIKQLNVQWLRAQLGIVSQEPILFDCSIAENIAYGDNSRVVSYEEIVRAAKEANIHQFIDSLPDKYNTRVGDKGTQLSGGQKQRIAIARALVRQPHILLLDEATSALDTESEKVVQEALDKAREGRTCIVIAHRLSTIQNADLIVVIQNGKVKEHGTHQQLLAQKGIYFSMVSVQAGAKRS

[3] = target: T1, ATP-dependent translocase ABCB1; assay: TP_TRANSPORTER: increase in small intestine concentration in mdr1a(-/-) mouse; type: functional, organism-based; settings: in vivo
[4] = target: T1, ATP-dependent translocase ABCB1; assay: TP_TRANSPORTER: increase in plasma concentration in mdr1a(-/-) mouse; type: functional, organism-based; settings: in vivo
[5] = target: T1, ATP-dependent translocase ABCB1; assay: TP_TRANSPORTER: increase in lung concentration in mdr1a(-/-) mouse; type: functional, organism-based; settings: in vivo
[6] = target: T1, ATP-dependent translocase ABCB1; assay: TP_TRANSPORTER: increase in liver concentration in mdr1a(-/-) mouse; type: functional, organism-based; settings: in vivo
[7] = target: T1, ATP-dependent translocase ABCB1; assay: TP_TRANSPORTER: increase in kidney concentration in mdr1a(-/-) mouse; type: functional, organism-based; settings: in vivo
[8] = target: T1, ATP-dependent translocase ABCB1; assay: TP_TRANSPORTER: increase in brain concentration in mdr1a(-/-) mouse; type: functional, organism-based; settings: in vivo

Measured: Activity

Chain of ATP-dependent translocase ABCB1 (Homo sapiens, UniProt P08183) (P08183 whole entry): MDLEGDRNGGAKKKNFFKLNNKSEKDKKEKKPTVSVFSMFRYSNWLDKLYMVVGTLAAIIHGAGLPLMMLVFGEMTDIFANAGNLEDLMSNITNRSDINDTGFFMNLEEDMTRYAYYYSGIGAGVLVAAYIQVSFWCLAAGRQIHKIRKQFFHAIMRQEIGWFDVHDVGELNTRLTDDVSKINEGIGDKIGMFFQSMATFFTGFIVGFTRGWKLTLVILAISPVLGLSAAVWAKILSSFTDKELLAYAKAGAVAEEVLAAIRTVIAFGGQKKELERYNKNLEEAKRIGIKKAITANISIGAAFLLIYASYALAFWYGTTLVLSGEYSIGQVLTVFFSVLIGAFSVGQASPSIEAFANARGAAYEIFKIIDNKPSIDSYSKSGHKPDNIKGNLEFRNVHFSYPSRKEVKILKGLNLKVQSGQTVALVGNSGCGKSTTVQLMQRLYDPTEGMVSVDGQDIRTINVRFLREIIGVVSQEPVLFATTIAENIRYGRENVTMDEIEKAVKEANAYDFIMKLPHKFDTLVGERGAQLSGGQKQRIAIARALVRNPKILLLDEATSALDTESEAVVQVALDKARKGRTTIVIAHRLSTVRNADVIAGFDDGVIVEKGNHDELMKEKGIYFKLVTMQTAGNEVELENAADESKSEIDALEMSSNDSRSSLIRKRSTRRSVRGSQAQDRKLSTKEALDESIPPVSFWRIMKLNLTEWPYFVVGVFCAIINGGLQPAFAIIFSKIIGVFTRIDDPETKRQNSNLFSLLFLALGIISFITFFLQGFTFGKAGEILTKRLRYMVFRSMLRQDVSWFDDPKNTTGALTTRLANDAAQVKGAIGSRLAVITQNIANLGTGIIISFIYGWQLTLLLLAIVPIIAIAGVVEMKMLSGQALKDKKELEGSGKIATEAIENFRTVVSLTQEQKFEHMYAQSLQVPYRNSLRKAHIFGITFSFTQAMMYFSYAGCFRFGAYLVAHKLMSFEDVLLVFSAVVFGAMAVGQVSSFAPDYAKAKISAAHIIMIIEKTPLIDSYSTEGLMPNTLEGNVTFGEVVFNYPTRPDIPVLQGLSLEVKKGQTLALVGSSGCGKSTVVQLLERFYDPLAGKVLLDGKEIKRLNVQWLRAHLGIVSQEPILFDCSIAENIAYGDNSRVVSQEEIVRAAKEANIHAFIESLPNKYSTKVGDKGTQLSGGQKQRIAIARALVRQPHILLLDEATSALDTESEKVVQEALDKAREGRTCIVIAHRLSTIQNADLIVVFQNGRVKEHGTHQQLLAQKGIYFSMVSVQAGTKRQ

C[C@H]1O[C@@H](O[C@H]2[C@@H](O)C[C@H](O[C@H]3[C@@H](O)C[C@H](O[C@H]4CC[C@@]5(C)[C@H](CC[C@@H]6[C@@H]5C[C@@H](O)[C@]5(C)[C@@H](C7=CC(=O)OC7)CC[C@]65O)C4)O[C@@H]3C)O[C@@H]2C)C[C@H](O)[C@@H]1O [DIGOXIN]
substrate [+]: [1]

C=C[C@H]1C[N@@]2CC[C@H]1C[C@@H]2[C@@H](O)c1ccnc2ccc(OC)cc12 [QUINIDINE]
not listed: [1]
substrate [+]: all other assays above
